Experimental findings from ChEMBL document CHEMBL1142925, “Optimization and determination of the absolute configuration of a series of potent inhibitors of human papillomavirus type-11 E1-E2 protein-protein interaction: a combined medicinal chemistry, NMR and computational chemistry approach” (Bioorg Med Chem, 2007) are described below.

Active and inactive are the calls of the source. The calls are words filed in the database; no cut-off is given here. Where only a bound is given, the exact number is not on record here.

For experiment [1], the target named is Large T antigen (Simian virus 40) (UniProt P03070). The experiment is described as follows: Inhibition of binding of SV40 large T antigen to DNA by scintillation proximity assay. The note with it: Betapolyomavirus macacae. Background: In a scintillation proximity assay essentially only radioactivity close to the scintillant gives light.
Large T antigen (Simian virus 40), sequence (P03070 whole entry): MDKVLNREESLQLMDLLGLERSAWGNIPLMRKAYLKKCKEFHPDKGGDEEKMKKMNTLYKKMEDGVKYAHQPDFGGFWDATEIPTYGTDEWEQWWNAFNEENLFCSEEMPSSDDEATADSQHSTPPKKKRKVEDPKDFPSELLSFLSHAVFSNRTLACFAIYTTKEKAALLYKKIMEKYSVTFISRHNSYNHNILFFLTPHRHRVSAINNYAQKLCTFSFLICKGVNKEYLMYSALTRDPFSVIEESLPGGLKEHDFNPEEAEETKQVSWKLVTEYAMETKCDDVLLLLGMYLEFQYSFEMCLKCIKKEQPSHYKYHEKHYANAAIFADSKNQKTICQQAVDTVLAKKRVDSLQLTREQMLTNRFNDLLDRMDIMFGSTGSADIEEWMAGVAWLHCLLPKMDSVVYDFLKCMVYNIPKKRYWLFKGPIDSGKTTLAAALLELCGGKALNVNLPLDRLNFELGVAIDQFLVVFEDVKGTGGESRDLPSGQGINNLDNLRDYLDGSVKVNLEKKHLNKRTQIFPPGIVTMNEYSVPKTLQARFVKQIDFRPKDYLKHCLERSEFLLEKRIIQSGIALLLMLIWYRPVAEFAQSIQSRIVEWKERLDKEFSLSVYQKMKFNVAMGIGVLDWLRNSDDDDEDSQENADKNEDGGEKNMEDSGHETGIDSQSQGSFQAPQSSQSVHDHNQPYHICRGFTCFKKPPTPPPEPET
Experiment [2] is described as follows: Inhibition of HPV11 E1-E2 protein-protein interaction by E1-E2-ori-complex formation assay.

In general, IC50 refers to the concentration needed to halve the response being measured. Take `O=C(Nc1ccc(N2CCOCC2)cc1)[C@H]1[C@@H](c2ccc(Br)c(Br)c2)OC2(C(=O)c3ccccc3C2=O)[C@H]1C(=O)O`: in experiment [1], the result was inactive. For the same compound, the IC50 in experiment [2] was found to be 15000 nM. The compound `O=C(Nc1ccc(N2CCOCC2)cc1)[C@H]1[C@@H](C(=O)O)C2(O[C@H]1c1ccc(Br)c(Br)c1)C(=O)c1ccccc1C2=O` (stereo in doubt; 19) [listing 1 of 2 here] showed a half-maximal inhibitory concentration (IC50) in experiment [2] of 51 nM. With `O=C(Nc1ccc(N2CCOCC2)cc1)[C@H]1[C@@H](C(=O)O)C2(O[C@H]1c1ccc(Br)c(Br)c1)C(=O)c1ccccc1C2=O` (stereo in doubt; 19) [listing 2 of 2 here], the result in experiment [1] was inactive.

Regarding `CC(=O)Nc1cccc(NC(=O)[C@H]2[C@@H](C(=O)O)C3(O[C@H]2c2ccc(Cl)c(Cl)c2)C(=O)c2ccccc2C3=O)c1`, the outcome in experiment [1] was inactive. The compound further displayed an IC50 in experiment [2] of 740 nM.

Consider `CC(=O)Nc1ccccc1NC(=O)[C@H]1[C@@H](C(=O)O)C2(O[C@H]1c1ccc(Cl)c(Cl)c1)C(=O)c1ccccc1C2=O`, for which, in experiment [1], the outcome was inactive. For the same compound, the IC50 in experiment [2] was 65000 nM. In the same order, the values of `CC(C)(C)NC(=O)[C@H]1[C@@H](C(=O)O)C2(O[C@H]1c1ccc(Cl)c(Cl)c1)C(=O)c1ccccc1C2=O` are “inactive” and 2100 nM. As to `CC(=O)Nc1ccc(NC(=O)[C@H]2[C@@H](C(=O)O)C3(O[C@H]2c2ccc(Cl)c(Cl)c2)C(=O)c2ccccc2C3=O)cc1`, the outcome in experiment [1] was inactive. In addition, in experiment [2], half-maximal inhibition (IC50) was put at 440 nM. For the compound `C[C@@H](NC(=O)[C@H]1[C@H]2C(=O)O[C@]3(O)c4ccccc4C(=O)[C@]23O[C@H]1c1ccc(Cl)c(Cl)c1)c1ccccc1`, the outcome in experiment [1] was inactive. Further, the IC50 in experiment [2] was 6800 nM. For `C[C@@H](NC(=O)[C@H]1[C@@H](c2ccc(Cl)c(Cl)c2)O[C@@]23C(=O)c4ccccc4[C@]2(O)OC(=O)[C@@H]13)c1ccccc1`, in that order: “inactive” and over 75000 nM. In the same order, the values of `O=C(Nc1ccccc1)[C@H]1[C@@H](C(=O)O)C2(O[C@H]1c1ccc(Cl)c(Cl)c1)C(=O)c1ccccc1C2=O` are “inactive” and 680 nM. In the same order, the values of `O=C(Nc1ccc2c(c1)OCO2)[C@H]1[C@H]2C(=O)O[C@]3(O)c4ccccc4C(=O)[C@]23O[C@H]1c1ccc(Cl)cc1` are “inactive” and 6600 nM. Turning to `O=C(Nc1ccc2c(c1)OCO2)[C@H]1[C@@H](C(=O)O)C2(O[C@H]1c1ccc(Cl)cc1)C(=O)c1ccccc1C2=O`, in experiment [1], the result was inactive. The IC50 in experiment [2] came to 7800 nM. Turning to `O=C(Nc1ccc2c(c1)OCO2)[C@H]1[C@@H](C(=O)O)C2(O[C@H]1c1ccc(Cl)c(Cl)c1)C(=O)c1ccccc1C2=O`, in experiment [1], the result was inactive. Further, the IC50 in experiment [2] stood at 350 nM. Regarding `O=C(NCc1ccccc1)[C@H]1[C@@H](C(=O)O)C2(O[C@H]1c1ccc(Cl)c(Cl)c1)C(=O)c1ccccc1C2=O`, the result in experiment [1] was inactive. Moreover, it took 3500 nM to reach half-maximal inhibition in experiment [2] (IC50). In the case of `CC(=O)c1ccc(NC(=O)[C@H]2[C@@H](C(=O)O)C3(O[C@H]2c2ccc(Cl)c(Cl)c2)C(=O)c2ccccc2C3=O)cc1`, the result in experiment [1] was inactive. The compound further had an IC50 in experiment [2] of 380 nM. For `Cc1cc2c(s1)C(=O)[C@]1(O[C@@H](c3ccc(Br)c(Br)c3)[C@@H](C(=O)Nc3ccc(N4CCOCC4)cc3)[C@H]1C(=O)O)C2=O`, the outcome in experiment [1] was inactive. Also, the IC50 in experiment [2] is 6 nM.

In turn, `O=C(Nc1ccc(N2CCOCC2)cc1)[C@H]1[C@@H](C(=O)O)C2(O[C@H]1c1ccc(Br)c(Br)c1)C(=O)c1ccccc1C2=O` (stereo in doubt; 21) [listing 1 of 2 here] showed an IC50 in experiment [2] of 28 nM.

For the compound `Cc1cc2c(s1)C(=O)[C@@]1(O[C@@H](c3ccc(Br)c(Br)c3)[C@@H](C(=O)Nc3ccc(N4CCOCC4)cc3)[C@H]1C(=O)O)C2=O`, in experiment [1], the outcome was inactive. Besides, in experiment [2], the IC50 is 460 nM. For `O=C(Nc1ccc(N2CCOCC2)cc1)[C@H]1[C@@H](C(=O)O)C2(O[C@H]1c1ccc(Cl)c(Cl)c1)C(=O)c1ccccc1C2=O`, in that order: “inactive” and 88 nM. On to `O=C(Nc1ccc(-c2csnn2)cc1)[C@H]1[C@@H](C(=O)O)C2(O[C@H]1c1ccc(Cl)c(Cl)c1)C(=O)c1ccccc1C2=O`, for which, in experiment [1], the outcome was inactive. Moreover, in experiment [2], the IC50 stood at 150 nM. On to `Cc1ccc2c(c1)C(=O)[C@@]1(O[C@@H](c3ccc(Cl)c(Cl)c3)[C@@H](C(=O)Nc3ccc(-c4csnn4)cc3)[C@H]1C(=O)O)C2=O`, for which, in experiment [1], the result was inactive. In experiment [2], this compound gave an IC50 of 180 nM.

Consider `O=C(Nc1ccc(N2CCOCC2)cc1)[C@H]1[C@@H](C(=O)O)C2(O[C@H]1c1ccc(Br)c(Br)c1)C(=O)c1ccccc1C2=O` (stereo in doubt; 21) [listing 2 of 2 here], for which, in experiment [1], the result was inactive.
